# Data taken from the supplement of paper PMC10307832.
# What was measured:
# Experiment in all cases: relative viability (nuclei count vs DMSO), 5 days (fraction); higher = more cells survive
# HCC-44 = system: HCC-44
# How it was run: (§1)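 After 5 days of treatment, lung cancer cells in 1536-well plates were fixed and stained in a single step (final 0.05% Triton X-100, 1% formaldehyde, 1 ug/ml Hoechst) and their nuclei counted on 4× images. Treatment had been applied by pin tool the day after seeding as one drug alone or as a fixed anchor-drug dose with five library-drug doses (not always all listed) in √10 steps. Relative viability is the nuclei count of treated wells divided by that of vehicle wells, and values are medians of duplicate plates.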
# NCI-H441 = system: NCI-H441
# How it was run: as §1
# NCI-H23 = system: NCI-H23
# How it was run: as §1
# NCI-H3122 = system: NCI-H3122
# How it was run: as §1
# NCI-H2405 = system: NCI-H2405
# How it was run: as §1
# PC-3 [JPC-3] = system: PC-3 [JPC-3]
# How it was run: as §1
# NCI-H647 = system: NCI-H647
# How it was run: as §1
# HCC-366 = system: HCC-366
# How it was run: as §1
# LXF-289 = system: LXF-289
# How it was run: as §1
# UMC-11 = system: UMC-11
# How it was run: as §1
# NCI-H596 = system: NCI-H596
# How it was run: as §1
# PC-14 = system: PC-14
# How it was run: as §1
# H3255 = system: H3255
# How it was run: as §1
# A-427 = system: A-427
# How it was run: as §1
# NCI-H1755 = system: NCI-H1755
# How it was run: as §1
# LCLC-103H = system: LCLC-103H
# How it was run: as §1
# NCI-H1437 = system: NCI-H1437
# How it was run: as §1
# NCI-H2347 = system: NCI-H2347
# How it was run: as §1
# NCI-H2009 = system: NCI-H2009
# How it was run: as §1
# NCI-H2023 = system: NCI-H2023
# How it was run: as §1
# NCI-H460 = system: NCI-H460
# How it was run: as §1
compound,measurement,setting,value
COCC1(CO)C(=O)C2CCN1CC2 (centres undefined) [PRIMA-1MET] + Nc1nc2[nH]cc(CCc3ccc(C(=O)N[C@@H](CCC(=O)O)C(=O)O)cc3)c2c(=O)[nH]1 [Pemetrexed] (partner 0.2 µM),relative viability,HCC-44; first compound 0.2 µM,0.748
same,relative viability,HCC-44; first compound 0.6325 µM,0.641
same,relative viability,HCC-44; first compound 2 µM,0.681
same,relative viability,HCC-44; first compound 6.325 µM,0.676
same,relative viability,HCC-44; first compound 20 µM,0.607
same,relative viability,NCI-H441; first compound 0.2 µM,0.24
same,relative viability,NCI-H441; first compound 0.6325 µM,0.2
same,relative viability,NCI-H441; first compound 2 µM,0.271
same,relative viability,NCI-H441; first compound 6.325 µM,0.274
same,relative viability,NCI-H441; first compound 20 µM,0.204
same,relative viability,NCI-H23; first compound 0.2 µM,0.425
same,relative viability,NCI-H23; first compound 0.6325 µM,0.595
same,relative viability,NCI-H23; first compound 2 µM,0.443
same,relative viability,NCI-H23; first compound 6.325 µM,0.579
same,relative viability,NCI-H23; first compound 20 µM,0.175
same,relative viability,NCI-H3122; first compound 0.2 µM,0.18
same,relative viability,NCI-H3122; first compound 0.6325 µM,0.199
same,relative viability,NCI-H3122; first compound 2 µM,0.206
same,relative viability,NCI-H3122; first compound 6.325 µM,0.192
same,relative viability,NCI-H3122; first compound 20 µM,0.206
same,relative viability,NCI-H2405; first compound 0.2 µM,1.01
same,relative viability,NCI-H2405; first compound 0.6325 µM,0.986
same,relative viability,NCI-H2405; first compound 6.325 µM,0.974
same,relative viability,NCI-H2405; first compound 20 µM,0.0844
same,relative viability,PC-3 [JPC-3]; first compound 0.2 µM,1.06
same,relative viability,PC-3 [JPC-3]; first compound 0.6325 µM,0.975
same,relative viability,PC-3 [JPC-3]; first compound 2 µM,1.04
same,relative viability,PC-3 [JPC-3]; first compound 6.325 µM,1.14
same,relative viability,PC-3 [JPC-3]; first compound 20 µM,1.04
same,relative viability,NCI-H647; first compound 0.2 µM,0.19
same,relative viability,NCI-H647; first compound 0.6325 µM,0.152
same,relative viability,NCI-H647; first compound 2 µM,0.19
same,relative viability,NCI-H647; first compound 6.325 µM,0.173
same,relative viability,NCI-H647; first compound 20 µM,0.124
same,relative viability,HCC-366; first compound 0.2 µM,0.187
same,relative viability,HCC-366; first compound 0.6325 µM,0.203
same,relative viability,HCC-366; first compound 2 µM,0.156
same,relative viability,HCC-366; first compound 6.325 µM,0.184
same,relative viability,HCC-366; first compound 20 µM,0.0889
same,relative viability,LXF-289; first compound 0.2 µM,0.967
same,relative viability,LXF-289; first compound 0.6325 µM,0.891
same,relative viability,LXF-289; first compound 2 µM,1.09
same,relative viability,LXF-289; first compound 6.325 µM,0.954
same,relative viability,LXF-289; first compound 20 µM,0.875
same,relative viability,UMC-11; first compound 0.2 µM,0.866
same,relative viability,UMC-11; first compound 0.6325 µM,0.693
same,relative viability,UMC-11; first compound 2 µM,0.836
same,relative viability,UMC-11; first compound 6.325 µM,0.768
same,relative viability,UMC-11; first compound 20 µM,0.801
same,relative viability,NCI-H596; first compound 0.2 µM,0.553
same,relative viability,NCI-H596; first compound 0.6325 µM,0.481
same,relative viability,NCI-H596; first compound 2 µM,0.531
same,relative viability,NCI-H596; first compound 6.325 µM,0.495
same,relative viability,NCI-H596; first compound 20 µM,0.176
same,relative viability,PC-14; first compound 0.2 µM,0.124
same,relative viability,PC-14; first compound 0.6325 µM,0.148
same,relative viability,PC-14; first compound 2 µM,0.114
same,relative viability,PC-14; first compound 6.325 µM,0.148
same,relative viability,PC-14; first compound 20 µM,0.0292
same,relative viability,H3255; first compound 0.2 µM,0.634
same,relative viability,H3255; first compound 0.6325 µM,0.458
same,relative viability,H3255; first compound 2 µM,0.601
same,relative viability,H3255; first compound 6.325 µM,0.567
same,relative viability,H3255; first compound 20 µM,0.534
same,relative viability,A-427; first compound 0.2 µM,1.11
same,relative viability,A-427; first compound 0.6325 µM,0.92
same,relative viability,A-427; first compound 2 µM,0.953
same,relative viability,A-427; first compound 6.325 µM,1.06
same,relative viability,A-427; first compound 20 µM,0.962
same,relative viability,NCI-H1755; first compound 0.2 µM,0.465
same,relative viability,NCI-H1755; first compound 0.6325 µM,0.388
same,relative viability,NCI-H1755; first compound 2 µM,0.406
same,relative viability,NCI-H1755; first compound 6.325 µM,0.333
same,relative viability,NCI-H1755; first compound 20 µM,0.373
same,relative viability,LCLC-103H; first compound 0.2 µM,0.45
same,relative viability,LCLC-103H; first compound 0.6325 µM,0.503
same,relative viability,LCLC-103H; first compound 2 µM,0.459
same,relative viability,LCLC-103H; first compound 6.325 µM,0.499
same,relative viability,LCLC-103H; first compound 20 µM,0.451
same,relative viability,NCI-H1437; first compound 0.2 µM,0.32
same,relative viability,NCI-H1437; first compound 0.6325 µM,0.284
same,relative viability,NCI-H1437; first compound 2 µM,0.308
same,relative viability,NCI-H1437; first compound 6.325 µM,0.298
same,relative viability,NCI-H1437; first compound 20 µM,0.283
same,relative viability,NCI-H2347; first compound 0.2 µM,0.441
same,relative viability,NCI-H2347; first compound 0.6325 µM,0.455
same,relative viability,NCI-H2347; first compound 2 µM,0.335
same,relative viability,NCI-H2347; first compound 6.325 µM,0.407
same,relative viability,NCI-H2347; first compound 20 µM,0.398
same,relative viability,NCI-H2009; first compound 0.2 µM,0.973
same,relative viability,NCI-H2009; first compound 0.6325 µM,1.03
same,relative viability,NCI-H2009; first compound 2 µM,1.03
same,relative viability,NCI-H2009; first compound 6.325 µM,0.96
same,relative viability,NCI-H2009; first compound 20 µM,0.435
same,relative viability,NCI-H2023; first compound 0.2 µM,0.224
same,relative viability,NCI-H2023; first compound 0.6325 µM,0.23
same,relative viability,NCI-H2023; first compound 2 µM,0.28
same,relative viability,NCI-H2023; first compound 6.325 µM,0.237
same,relative viability,NCI-H2023; first compound 20 µM,0.147
same,relative viability,NCI-H460; first compound 0.2 µM,0.0602
same,relative viability,NCI-H460; first compound 0.6325 µM,0.051
same,relative viability,NCI-H460; first compound 2 µM,0.0601
same,relative viability,NCI-H460; first compound 6.325 µM,0.0553
same,relative viability,NCI-H460; first compound 20 µM,0.0386
